Entries after “also recorded” stand apart in the source; their conditions may differ. Like-named read-outs stand apart in the source and are kept apart here.
Experiments:
[1] = biological target: Nrf2-Keap1 complex (Homo sapiens, UniProt Q14145); assay: cell-based; format: cell-based; settings: for activation at 16 µM / activation at 32 µM: 3 h; for activation at 16 µM: read-out: Activation 100 nL; for activation at 32 µM: read-out: Activation 200 nL; for 100 nL (luminescence) / 200 nL (luminescence): Table 2, screen run at 16 and 32 μM, 3 hr; for 100 nL (luminescence): 100 nL compound; for 200 nL (luminescence): 200 nL compound
Chain of Nrf2-Keap1 complex (Q14145 whole entry, the tested form may be a part, one chain of several): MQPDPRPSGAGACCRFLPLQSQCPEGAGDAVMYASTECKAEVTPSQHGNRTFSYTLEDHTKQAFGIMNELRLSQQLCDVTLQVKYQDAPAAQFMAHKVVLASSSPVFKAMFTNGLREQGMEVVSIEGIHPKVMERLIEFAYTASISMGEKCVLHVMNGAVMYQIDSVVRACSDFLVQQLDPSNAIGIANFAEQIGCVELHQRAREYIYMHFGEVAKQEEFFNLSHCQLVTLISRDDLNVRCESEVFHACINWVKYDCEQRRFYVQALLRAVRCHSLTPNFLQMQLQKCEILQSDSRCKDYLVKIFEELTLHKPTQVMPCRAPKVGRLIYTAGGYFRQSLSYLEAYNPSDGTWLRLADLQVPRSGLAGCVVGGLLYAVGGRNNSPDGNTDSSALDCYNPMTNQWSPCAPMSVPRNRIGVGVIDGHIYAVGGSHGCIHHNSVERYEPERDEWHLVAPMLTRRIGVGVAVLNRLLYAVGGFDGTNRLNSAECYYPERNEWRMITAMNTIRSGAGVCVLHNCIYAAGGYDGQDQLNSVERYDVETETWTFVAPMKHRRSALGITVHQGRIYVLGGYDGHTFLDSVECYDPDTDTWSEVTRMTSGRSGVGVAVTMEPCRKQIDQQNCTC

[2] = tested on: Neh2-luciferase fusion protein in SH-SY5Y cells; format: cell-based, human
Description: Cells were plated at the density of 25,000 cell per well using a WellMate multichannel dispenser from Matrix (Thermo Fisher Scientific) and grown overnight on DMEM/F12+GlutaMAX (100 μl per well). Then the inhibitor was added, and the plates were incubated for a fixed time interval; the medium was removed, cells lysed in 20 μL (out of which 4 μL were taken for protein measurement), then BrightGlo™ reagent (Promega) was added to the wells and luciferase activity measured on a luminometer Lmax11384 (Molecular Devices). The reporter activation was normalized to the background luminescence divided by protein concentration. Kinetics of reporter activation were measured by adding varied fixed concentrations of an inhibitor at different time points followed by simultaneous cell lysis, protein determination, and luciferase activity measurement in the whole 96-well plate; this assay format minimizes experimental error originating from the well-known instability of luciferase reagent.

[3] = biological target: T1, FLAG-Keap1 (Homo sapiens, UniProt Q14145); format: cell-based; settings: 200 μM competing compound, HEK293 cells, then 10 μM STCA 30 min
T1 construct: expressed in transfected cells; host or cells: HEK293 (transient expression)
T1 sequence (Q14145 whole entry): as the sequence (Q14145 whole entry, the tested form may be a part, one chain of several) above
Description: FIG. 12. Supporting to FIG. 5. […] A: structural formulas of the compounds used; B: competition with Keap1 labeling. HEK293 cells transiently expressing FLAG-Keap1 were incubated with 200 μM competing compounds (sulforaphane, fisetin, quercetin, gedunin, TBHQ, ciclopirox, geldanamycin) and then further incubated with 10 μM sulfoxythiocarbate-alkyne (STCA) for 30 min at 37° C. FLAG-Keap1 was immunoprecipitated from cell lysates, subjected to click reaction with biotin azide on beads, and eluted with SDS-loading buffer. […] All values are presented as mean±SEM.
Keap1 labeling experiments were performed as described previously (AHN et al., Proc. Natl. […]. USA., 107: 9590-9595 (2010)) with following modifications. HEK293 cells transiently expressing FLAG-Keap1 were incubated with 200 μM competing compounds (sulforaphane, fisetin, quercetin, gedunin, TBHQ, ciclopirox, geldanamycin) in serum-free DMEM for 1 h. After washing with PBS, cells were further incubated with 10 μM sulfoxythiocarbate-alkyne (STCA) for 30 min at 37° C. FLAG-Keap1 was immunoprecipitated from cell lysates, subjected to click reaction with biotin azide on beads, and eluted with SDS-loading buffer. Eluted samples were immunoblotted with Streptavidin-HRP (Pierce) and anti-FLAG antibodies (Sigma).

[4] = tested on: primary immature neurons; assay: Astrocyte-dependent neuroprotection in astrocyte-neuron coculture with HCA; format: cell-based, rat; settings: astrocytes pretreated 24 hr, neurons plated with HCA
[5] = tested on: astrocytes; assay: Intracellular GSH levels in astrocytes; format: cell-based, rat
[6] = tested on: Immature neurons; assay: Neuronal viability of isolated immature neurons treated with compounds; settings: 24 hours
[7] = tested on: ARE-luc reporter; assay: ARE-luc reporter time-course; format: cell-based, human
Description: Human neuroblastoma SH-SY5Y cells were transfected with 1 mg of pcDNA3-Neh2LUC10, pcDNA3-ODDLUC8, pcDNA3-LUC3, and ARE-LUC/pcDNA3 (5:1) by using Lipofectamine—2000 (Invitrogen). Transfected cells were grown in the presence of 500 mg/ml Geneticin (GIBCO-Invitrogen) on DMEM/F12+ GlitaMAX (Dulbecco's modified Eagle medium Nutrient Mixture F-12 (Ham)(1:1) 1×, GIBCO 10565) medium.

[8] = tested on: Immature neurons

Row | Structure (SMILES) | activation at 16 µM [1] | activation at 32 µM [1] | 100 nL (luminescence) [1] | 200 nL (luminescence) [1] | type of reporter activation by time-course [2] | competition with Keap1 labeling by STCA [3] | astrocyte-dependent neuroprotection [4] | GSH in astrocytes [5] | toxicity in isolated neurons [6] | activation of Neh2-luc reporter ([2]; positive control, FIG. 1B) | delay of ARE-luc reporter response [7] | toxicity in isolated neurons [8]
1 | O=c1c(O)c(-c2ccc(O)c(O)c2)oc2cc(O)ccc12 [FISETIN] | 224% | 38% | 3360 | 1320 | activation via a switch or receptor | very modest competition; also recorded: poorly compete with Keap1 labeling | induced significant neuroprotection | does not show the same level of enhancement | did not induce toxicity in isolated neurons | – | – | –
2 | CC(=O)O[C@@H]1C[C@H]2C(C)(C)C(=O)C=C[C@]2(C)[C@H]2CC[C@@]3(C)[C@H](c4ccoc4)OC(=O)[C@H]4O[C@]43[C@@]21C [GEDUNIN] | 222% | 184% | 4812 | 3708 | immediate activation but gradual stabilization over time; also recorded: immediate effect | very modest competition; also recorded: poorly compete with Keap1 labeling | induced significant neuroprotection | clearly show a boost in GSH | did not induce toxicity in isolated neurons | – | – | –
3 | CC(C)(C)c1cc(O)ccc1O [TBHQ, tert-butylhydroquinone, reference compound] | – | – | – | – | immediate activation but gradual stabilization over time | very modest competition; also recorded: competes very poorly | – | – | – | more than 10 fold | 3 h | neurotoxic effects

From patent publication US9200046B2, “Reporter system for high throughput screening of compounds and uses thereof” (priority 2011, dated 2015)
